Measurements as given in ChEMBL document CHEMBL1201862, “PubChem BioAssay data set” (2004).
Calls of active or inactive are those of the source.

Tests used:
[1] = cytotoxicity in HEK-293T cells, dose response, cytotoxicity control for BCR NF-kB inhibitor project, luminescence, B-cell screen hits (AID 489021); type: functional, cell-based;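 note: HEK-293T cells carrying an NF-kB luciferase reporter; cells exposed to compound for about 14 hours before viability readout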
[2] = target: T1, Heat shock factor protein 1 (Mus musculus, UniProt P38532); experiment: inhibition of MG132-induced HSE-luciferase signal, confirmation, cell-based, NIH3T3, luminescence, dose retest (AID 2382); type: functional;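 note: NIH3T3 fibroblasts with HSF1-driven luciferase reporter stressed by proteasome inhibitor MG132; luminescence from HSF1-driven luciferase expression after 8 hours of MG132 stress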
T1 sequence (P38532 whole entry): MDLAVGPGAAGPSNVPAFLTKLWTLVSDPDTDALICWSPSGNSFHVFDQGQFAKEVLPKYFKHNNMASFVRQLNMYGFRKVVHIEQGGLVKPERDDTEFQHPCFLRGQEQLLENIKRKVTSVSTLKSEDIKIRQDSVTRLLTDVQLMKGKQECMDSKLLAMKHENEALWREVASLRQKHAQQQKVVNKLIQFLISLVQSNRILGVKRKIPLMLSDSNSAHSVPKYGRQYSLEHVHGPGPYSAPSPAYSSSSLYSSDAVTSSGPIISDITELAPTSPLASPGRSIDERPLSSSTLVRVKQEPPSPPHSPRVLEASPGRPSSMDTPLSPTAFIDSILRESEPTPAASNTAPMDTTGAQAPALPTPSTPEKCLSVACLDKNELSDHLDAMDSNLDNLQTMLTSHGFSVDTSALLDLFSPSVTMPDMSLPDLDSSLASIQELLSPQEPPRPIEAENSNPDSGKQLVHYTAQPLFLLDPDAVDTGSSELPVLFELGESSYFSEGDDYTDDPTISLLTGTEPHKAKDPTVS

[3] = target: DNA dC->dU-editing enzyme APOBEC-3A (Homo sapiens, UniProt P31941); experiment: Dose Response confirmation of small molecule APOBEC3A DNA Deaminase Inhibitors via a fluorescence-based single-stranded DNA deaminase assay. [Related pubchem assays (depositor defined):AID493011, AID493024]; type: functional
[4] = target: DNA dC->dU-editing enzyme APOBEC-3G (Homo sapiens, UniProt Q9HC16); type: functional;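 note: Dose-response counterscreen measuring inhibition of APOBEC3G DNA deaminase activity, run while confirming APOBEC3A inhibitors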
[5] = target: T2, High affinity choline transporter 1 (Homo sapiens, UniProt Q9GZV3); experiment: CHT inhibitors, dose response, cell-based, 5-point CRC, membrane potential dye (AID 504840); type: functional
T2 sequence (Q9GZV3 whole entry): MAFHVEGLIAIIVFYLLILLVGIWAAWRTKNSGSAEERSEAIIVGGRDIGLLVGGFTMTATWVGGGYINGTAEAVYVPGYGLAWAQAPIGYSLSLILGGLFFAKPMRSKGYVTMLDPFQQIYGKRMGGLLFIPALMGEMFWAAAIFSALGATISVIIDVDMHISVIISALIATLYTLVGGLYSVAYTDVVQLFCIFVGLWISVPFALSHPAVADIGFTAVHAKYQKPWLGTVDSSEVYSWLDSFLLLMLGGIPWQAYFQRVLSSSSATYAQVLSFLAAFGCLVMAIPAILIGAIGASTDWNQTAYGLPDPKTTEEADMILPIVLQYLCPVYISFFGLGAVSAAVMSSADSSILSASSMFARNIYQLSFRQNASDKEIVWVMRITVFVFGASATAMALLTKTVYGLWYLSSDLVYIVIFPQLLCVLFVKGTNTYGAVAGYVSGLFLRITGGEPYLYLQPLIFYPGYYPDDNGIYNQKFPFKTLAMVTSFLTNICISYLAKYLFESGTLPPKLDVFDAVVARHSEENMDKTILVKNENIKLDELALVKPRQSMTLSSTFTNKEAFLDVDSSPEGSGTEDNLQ

[6] = P. falciparum Dd2 growth inhibitors, dose response, SYBR Green, cherry-picked samples (AID 1159567); type: functional, cell-based
[7] = P. falciparum ATP4 D1247Y mutant growth inhibitors, dose response, NITD609-resistant line, SYBR Green, dry powder (AID 1159571); type: functional, cell-based;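 note: parasites synchronized at ring stage by sorbitol before testing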
[8] = P. falciparum Dd2 growth inhibitors, dose response, SYBR Green, dry powder samples (AID 1159566); type: functional, cell-based;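 note: potency for growth inhibition with lower SYBR green DNA signal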
[9] = HepG2 cell cytotoxicity, dose response, cytotoxicity control, plate reader, dry powder samples (AID 1159569); type: functional, cell-based;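 note: inhibitor potency with signal falling toward the positive control level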
[10] = P. falciparum 3D7-ScDHODH growth inhibitors, dose response, SYBR Green, dry powder samples (AID 1159570); type: functional, cell-based;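 note: parasite growth measured after 72 hours of compound exposure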
[11] = microbe, parasite or virus in culture; type: functional; conditions: Mycobacterium tuberculosis
[12] = system: P388/ADR; experiment: cells; type: functional; conditions: Mus musculus
[13] = system: SN12K1; experiment: cells; type: functional; conditions: Homo sapiens
[14] = system: P388; experiment: cells; type: functional; conditions: Mus musculus
[15] = target: T3, Adenosylmethionine-8-amino-7-oxononanoate aminotransferase (Mycobacterium tuberculosis, UniProt P9WQ81); experiment: Mycobacterium tuberculosis BioA enzyme inhibitor Measured in Biochemical System Using Plate Reader - 2163-02_Inhibitor_Dose_CherryPick_Activity.; type: functional, Mycobacterium tuberculosis UT205
T3 sequence (P9WQ81 whole entry): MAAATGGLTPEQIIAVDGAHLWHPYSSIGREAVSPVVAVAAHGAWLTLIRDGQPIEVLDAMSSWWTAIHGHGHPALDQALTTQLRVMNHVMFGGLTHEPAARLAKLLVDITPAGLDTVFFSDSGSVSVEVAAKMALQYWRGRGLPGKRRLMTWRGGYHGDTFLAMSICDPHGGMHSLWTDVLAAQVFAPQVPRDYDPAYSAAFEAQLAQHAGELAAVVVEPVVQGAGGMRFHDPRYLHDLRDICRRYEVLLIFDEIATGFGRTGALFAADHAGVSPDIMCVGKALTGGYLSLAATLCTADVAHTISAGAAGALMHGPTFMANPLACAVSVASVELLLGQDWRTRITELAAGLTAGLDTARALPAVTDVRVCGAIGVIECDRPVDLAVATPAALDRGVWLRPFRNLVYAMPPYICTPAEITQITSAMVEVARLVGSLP

[16] = target: T4, Probable nicotinate-nucleotide adenylyltransferase (Staphylococcus aureus (strain N315), UniProt P65502); type: functional, Staphylococcus aureus subsp. aureus N315; conditions: read-out: IC50_Mean;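 for IC50 Mean: confirmatory dose-response retesting of NadD inhibitor hits first found in an ultra-high-throughput screen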
[17] = target: T4, Probable nicotinate-nucleotide adenylyltransferase; type: functional, Staphylococcus aureus subsp. aureus N315
[18] = THP-1 cell cytotoxicity, dose response, cytotoxicity control for non-replicating M. tuberculosis project (AID 489025); type: functional
[19] = HepG2 cell cytotoxicity, dose response, cytotoxicity control for non-replicating M. tuberculosis project (AID 489018); type: functional; conditions: Mycobacterium tuberculosis
[20] = cells; type: functional

Sequence of DNA dC->dU-editing enzyme APOBEC-3G (Q9HC16 whole entry): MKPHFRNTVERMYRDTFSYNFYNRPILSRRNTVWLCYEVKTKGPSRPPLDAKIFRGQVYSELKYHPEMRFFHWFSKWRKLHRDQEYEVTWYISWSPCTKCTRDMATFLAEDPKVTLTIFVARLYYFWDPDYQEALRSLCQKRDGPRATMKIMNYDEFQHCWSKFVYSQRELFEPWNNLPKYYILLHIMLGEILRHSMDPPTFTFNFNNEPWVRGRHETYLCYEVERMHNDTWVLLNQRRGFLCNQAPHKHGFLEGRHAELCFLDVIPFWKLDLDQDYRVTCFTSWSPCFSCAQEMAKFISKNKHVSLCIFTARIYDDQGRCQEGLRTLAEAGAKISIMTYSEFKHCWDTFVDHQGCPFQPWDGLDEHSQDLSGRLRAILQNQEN
Sequence of DNA dC->dU-editing enzyme APOBEC-3A (P31941 whole entry): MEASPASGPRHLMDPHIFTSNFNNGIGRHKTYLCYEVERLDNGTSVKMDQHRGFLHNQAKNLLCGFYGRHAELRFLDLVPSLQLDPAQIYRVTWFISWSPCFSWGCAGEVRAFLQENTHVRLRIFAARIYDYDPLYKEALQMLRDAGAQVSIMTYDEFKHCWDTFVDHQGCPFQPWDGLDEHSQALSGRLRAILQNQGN
T4 sequence (P65502 whole entry): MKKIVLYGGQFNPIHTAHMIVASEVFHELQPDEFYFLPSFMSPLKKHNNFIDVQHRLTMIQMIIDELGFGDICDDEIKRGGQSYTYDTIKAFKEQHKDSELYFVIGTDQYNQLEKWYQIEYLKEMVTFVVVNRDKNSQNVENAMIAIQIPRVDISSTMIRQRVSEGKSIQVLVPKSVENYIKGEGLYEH

Compound: Cc1ccc(-c2cc(C(=O)NCCCN3CCOCC3)no2)cc1
- IC50 [1]: > 80 µM (inactive)
- EC50 [2]: 19.1 µM (active)

Compound: C[N+]1(CC(=O)OCCCc2ccccc2)CCCCC1
- IC50 [3]: 2.1 µM (active)
- IC50 [4]: 2.42 µM (active)

Compound: CCOc1cc(C=C2C(=O)NC(=O)NC2=O)ccc1OS(=O)(=O)c1ccccc1
- IC50 [5]: 12.6 µM (active)

Compound: CCC(=O)N1CCC2(CC1)CN(Cc1cccc(OC)c1)[C@@H](CO)c1[nH]c3cc(OC)ccc3c12
- AC50 [6]: 2.63 µM (active)
- AC50 [7]: 1.92 µM (active)
- AC50 [8]: 2.21 µM (active)
- AC50 [9]: 97.6 µM (active)
- AC50 [10]: 2.56 µM (active)

Compound: CC(C)CCC[C@@H](C)[C@H]1CC[C@H]2[C@@H]3C(=O)C=C4C[C@@H](O)CC[C@]4(C)[C@H]3CC[C@]12C [7-OXOCHOLESTEROL]
- CC50 [11]: > 40 µM (active)

Compound: O=C(Nc1ccccc1F)N1CCCCN2[C@@H](CO)[C@@H](c3ccc(C#Cc4cccnc4)cc3)[C@@H]2C1
- AC50 [6]: 1.33 µM (active)
- AC50 [7]: 1.35 µM (active)
- AC50 [8]: 0.95 µM (active)
- AC50 [9]: 42.6 µM (active)
- AC50 [10]: 1.95 µM (active)

Compound: CC(C)(C)S(=O)(=O)/C(C#N)=N/Nc1ccc(C#N)cc1
- IC50 [5]: 12 µM (active)

Compound: Cc1[nH]c(=O)[nH]c(=O)c1/C=C/C(=O)NC(CO)CC(C)C (stereo not given)
- GI50 [12]: 174 µM (inactive)
- GI50 [13]: > 360 µM (inactive)
- GI50 [14]: > 375 µM (inactive)

Compound: NCCCCCC(CCN)SCC1OC(n2cnc3c(N)ncnc32)C(O)C1O (stereo not given)
- GI50 [12]: 124 µM (inactive)
- GI50 [13]: 431 µM (inactive)
- GI50 [14]: 637 µM (inactive)

Compound: CCCCC(Br)C(=O)Nc1ccc(S(=O)(=O)Nc2cc(C)nc(C)n2)cc1 (stereo not given)
- IC50 [5]: 15.9 µM (active)

Compound: CC[n+]1c(C)n(Cc2ccccc2)c2ccc(Cl)cc21
- IC50 [3]: 1.39 µM (active)
- IC50 [4]: 2.27 µM (active)

Compound: CCN(CC)C(=O)Cn1c(C)c(/C=C/c2cc[n+](C)cc2)c2ccccc21
- IC50 [3]: 2.08 µM (active)
- IC50 [4]: 4.08 µM (active)

Compound: CCN(C(=O)CN1C(=O)NC(c2ccccc2)(c2ccc(C)c(C)c2)C1=O)C1CCCCC1 (stereo not given)
- IC50 [1]: > 80 µM (inactive)

Compound: O=C(c1cccc(F)c1)N1CC[C@@H]2[C@@H](CO)Nc3ccc(-c4cccc(F)c4)cc3[C@@H]21
- AC50 [15]: 0.222 µM (active)

Compound: CN(Cc1ccccc1)S(=O)(=O)c1ccc2ncc(C(=O)NCC3CCCO3)c(O)c2c1 (stereo not given)
- IC50 [5]: 15.2 µM (active)

Compound: Fc1ccc(C2=Nn3c(nnc3-c3[nH]nc4c3CCC4)SC2)cc1
- IC50 [1]: > 80 µM (inactive)

Compound: Cc1cnc(C(=O)NC2CC(C)(C)Cc3c2cnn3-c2cccc(F)c2)cn1 (stereo not given)
- AC50 [15]: 1.63 µM (active)

Compound: CC(=O)Nc1ccc2c(COC(=O)CC3Sc4ccccc4NC3=O)cc(=O)oc2c1 (stereo not given)
- IC50 [3]: 19.3 µM (active)
- IC50 [4]: 30.7 µM (active)

Compound: Cc1ccc(N2Cc3c(ccc4ccccc34)OP2(=S)N2CCCC2)cc1 (stereo not given)
- GI50 [12]: 26.2 µM (inactive)
- GI50 [13]: > 77.6 µM (inactive)
- GI50 [14]: 18.6 µM (inactive)

Compound: CO[C@H](C(=O)[C@@H](O)[C@@H](C)O)[C@@H]1Cc2cc3cc(OC4CC(OC5CC(O)C(O)C(C)O5)C(O)C(C)O4)c(C)c(O)c3c(O)c2C(=O)[C@H]1OC1CC(OC2CC(OC3CC(C)(O)C(O)C(C)O3)C(O)C(C)O2)C(O)C(C)O1 (stereo not given in full)
- GI50 [12]: 1.33 µM (inactive)
- GI50 [13]: 0.348 µM (active)
- GI50 [14]: 0.441 µM (active)

Compound: COCC(=O)N1CC[C@@H]2[C@@H](CO)N(C)c3ccc(-c4ccc(F)cc4)cc3[C@@H]21
- AC50 [15]: 0.948 µM (active)

Compound: N#C[C@@H]1[C@H](c2ccc(C3=CCCCC3)cc2)[C@H](CO)N1C(=O)NC1CCCC1
- AC50 [6]: 1.96 µM (active)
- AC50 [7]: 1.41 µM (active)
- AC50 [8]: 0.923 µM (active)
- AC50 [9]: 0.338 µM (active)
- AC50 [10]: 5.81 µM (active)

Compound: Cc1cc(C)cc(OCC(=O)N2N=C(C(F)(F)F)CC2(O)C(C)(C)C)c1 (stereo not given)
- IC50 [3]: 4.6 µM (active)
- IC50 [4]: 5.91 µM (active)

Compound: N#CC1=C(S)N=C(N)C(c2nc(-c3ccccc3)cs2)C12CCCC2 (stereo not given)
- IC50 [16]: 19.1 µM (active)
- IC50 [17]: 8.09 µM (active)

Compound: COc1ccc(C(CCNCc2ccc(OC(C)C)cc2)C(C)C)cc1 (stereo not given)
- CC50 [18]: 13.7 µM (active)
- CC50 [19]: 13.6 µM (active)
- CC50 [11]: 23.1 µM (active)
- IC50 [20]: 23 µM (active)

Compound: CSCC[C@@H](NC(=O)[C@H](CC(C)C)NC(=O)C(Cc1cnc[nH]1)NC(=O)CNC(=O)[C@@H](NC(=O)[C@H](C)NC(=O)[C@H](Cc1cn(C=O)c2ccccc12)NC(=O)[C@H](CCC(N)=O)NC(=O)[C@@H](N)CC(N)=O)C(C)C)C(N)=O (stereo not given in full)
- GI50 [12]: > 100 µM (inactive)
- GI50 [13]: > 100 µM (inactive)
- GI50 [14]: > 100 µM (inactive)

Compound: C=CCn1c(SCc2c(C(=O)OC)sc(N)c2C(=O)OC)nnc1-c1ccc(Cl)cc1
- AC50 [15]: 0.244 µM (active)

Compound: O=C(Nc1cccnc1)C1CCN(S(=O)(=O)c2ccc(Cl)cc2)CC1
- AC50 [15]: 0.711 µM (active)

Compound: C[C@H]1CN([C@@H](C)CO)C(=O)c2cc(NC(=O)Nc3cccc4ccccc34)ccc2O[C@H]1CN(C)C(=O)Nc1ccc(C(F)(F)F)cc1
- AC50 [6]: 2.37 µM (active)
- AC50 [7]: 3.76 µM (active)
- AC50 [8]: 1.5 µM (active)
- AC50 [9]: > 100 µM (inactive)
- AC50 [10]: 1.86 µM (active)

Compound: Cc1ccccc1CSCC1Nc2ccc(C(=O)NCCc3ccccc3)cc2NC1=O (stereo not given)
- IC50 [16]: 17.2 µM (active)
- IC50 [17]: 6.55 µM (active)

Compound: Cc1n(CC(=O)c2ccc([N+](=O)[O-])cc2)c2c([n+]1CC(C)C)C(=O)c1ccccc1C2=O
- GI50 [12]: 22.2 µM (inactive)
- GI50 [13]: < 0.01 µM (active)
- GI50 [14]: 0.194 µM (active)
